Reference: the supplement of paper PMC10307832

Experiments:
Test in all cases: relative viability (nuclei count vs DMSO), 5 days (fraction); higher = more cells survive
[1] = tested on: BEN
In short: (§1)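 Relative viability is defined as nuclei in treated wells over nuclei in vehicle wells. Duplicate plates were run and medians reported. Lung cancer cell lines in 1536-well plates were dosed by pin tool one day after seeding, with one drug or with a fixed anchor-drug dose plus five library-drug doses (not always all listed) in √10 steps, and nuclei were counted after 5 days.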

[2] = tested on: CAL-12T
In short: as §1

[3] = tested on: COR-L23
In short: as §1

[4] = tested on: HCC-366
In short: as §1

[5] = tested on: LOU-NH91
In short: as §1

[6] = tested on: LU99A
In short: as §1

[7] = tested on: NCI-H1355
In short: as §1

[8] = tested on: NCI-H1437
In short: as §1

[9] = tested on: NCI-H1563
In short: as §1

[10] = tested on: NCI-H1650
In short: as §1

[11] = tested on: NCI-H1651
In short: as §1

[12] = tested on: NCI-H1734
In short: as §1

[13] = tested on: NCI-H1793
In short: as §1

[14] = tested on: NCI-H1975
In short: as §1

[15] = tested on: NCI-H2023
In short: as §1

[16] = tested on: NCI-H2085
In short: as §1

[17] = tested on: NCI-H2342
In short: as §1

[18] = tested on: NCI-H358
In short: as §1

[19] = tested on: NCI-H441
In short: as §1

[20] = tested on: NCI-H460
In short: as §1

[21] = tested on: NCI-H838
In short: as §1

[22] = tested on: SK-LU-1
In short: as §1

CCN(CC)CCCCNc1ncc2cc(-c3cc(OC)cc(OC)c3)c(NC(=O)NC(C)(C)C)nc2n1 + COc1cccc2cc(-c3nc([C@H]4CC[C@H](C(=O)O)CC4)n4ncnc(N)c34)[nH]c12 [OSI-027] (partner 0.5 µM)
relative viability ([1]; first compound 0.01 µM): 0.242
relative viability ([1]; first compound 0.03162 µM): 0.285
relative viability ([1]; first compound 0.1 µM): 0.347
relative viability ([1]; first compound 0.3162 µM): 0.311
relative viability ([1]; first compound 1 µM): 0.282
relative viability ([2]; first compound 0.01 µM): 0.623
relative viability ([2]; first compound 0.03162 µM): 0.736
relative viability ([2]; first compound 0.1 µM): 0.789
relative viability ([2]; first compound 0.3162 µM): 0.836
relative viability ([2]; first compound 1 µM): 0.576
relative viability ([3]; first compound 0.01 µM): 1.19
relative viability ([3]; first compound 0.03162 µM): 0.873
relative viability ([3]; first compound 0.1 µM): 1.06
relative viability ([3]; first compound 0.3162 µM): 1.07
relative viability ([3]; first compound 1 µM): 0.503
relative viability ([4]; first compound 0.01 µM): 1.02
relative viability ([4]; first compound 0.03162 µM): 1.01
relative viability ([4]; first compound 0.1 µM): 1.2
relative viability ([4]; first compound 0.3162 µM): 1.06
relative viability ([4]; first compound 1 µM): 1.24
relative viability ([5]; first compound 0.01 µM): 0.672
relative viability ([5]; first compound 0.03162 µM): 0.741
relative viability ([5]; first compound 0.1 µM): 0.776
relative viability ([5]; first compound 0.3162 µM): 0.776
relative viability ([5]; first compound 1 µM): 0.696
relative viability ([6]; first compound 0.01 µM): 0.292
relative viability ([6]; first compound 0.03162 µM): 0.259
relative viability ([6]; first compound 0.1 µM): 0.309
relative viability ([6]; first compound 0.3162 µM): 0.291
relative viability ([6]; first compound 1 µM): 0.302
relative viability ([7]; first compound 0.01 µM): 0.405
relative viability ([7]; first compound 0.03162 µM): 0.404
relative viability ([7]; first compound 0.1 µM): 0.417
relative viability ([7]; first compound 0.3162 µM): 0.45
relative viability ([7]; first compound 1 µM): 0.367
relative viability ([8]; first compound 0.01 µM): 0.978
relative viability ([8]; first compound 0.03162 µM): 0.876
relative viability ([8]; first compound 0.1 µM): 0.925
relative viability ([8]; first compound 0.3162 µM): 0.874
relative viability ([8]; first compound 1 µM): 0.857
relative viability ([9]; first compound 0.01 µM): 0.766
relative viability ([9]; first compound 0.03162 µM): 0.723
relative viability ([9]; first compound 0.1 µM): 0.835
relative viability ([9]; first compound 0.3162 µM): 0.768
relative viability ([9]; first compound 1 µM): 0.584
relative viability ([10]; first compound 0.01 µM): 0.7
relative viability ([10]; first compound 0.03162 µM): 0.702
relative viability ([10]; first compound 0.1 µM): 0.649
relative viability ([10]; first compound 0.3162 µM): 0.624
relative viability ([10]; first compound 1 µM): 0.4
relative viability ([11]; first compound 0.01 µM): 0.7
relative viability ([11]; first compound 0.03162 µM): 0.737
relative viability ([11]; first compound 0.1 µM): 0.782
relative viability ([11]; first compound 0.3162 µM): 0.79
relative viability ([11]; first compound 1 µM): 0.695
relative viability ([12]; first compound 0.01 µM): 0.647
relative viability ([12]; first compound 0.03162 µM): 0.61
relative viability ([12]; first compound 0.1 µM): 0.634
relative viability ([12]; first compound 0.3162 µM): 0.666
relative viability ([12]; first compound 1 µM): 0.526
relative viability ([13]; first compound 0.01 µM): 0.238
relative viability ([13]; first compound 0.03162 µM): 0.253
relative viability ([13]; first compound 0.1 µM): 0.318
relative viability ([13]; first compound 0.3162 µM): 0.307
relative viability ([13]; first compound 1 µM): 0.206
relative viability ([14]; first compound 0.01 µM): 0.86
relative viability ([14]; first compound 0.03162 µM): 0.822
relative viability ([14]; first compound 0.1 µM): 0.802
relative viability ([14]; first compound 0.3162 µM): 0.949
relative viability ([14]; first compound 1 µM): 0.559
relative viability ([15]; first compound 0.01 µM): 0.426
relative viability ([15]; first compound 0.03162 µM): 0.452
relative viability ([15]; first compound 0.1 µM): 0.518
relative viability ([15]; first compound 0.3162 µM): 0.486
relative viability ([15]; first compound 1 µM): 0.359
relative viability ([16]; first compound 0.01 µM): 0.71
relative viability ([16]; first compound 0.03162 µM): 0.759
relative viability ([16]; first compound 0.1 µM): 0.867
relative viability ([16]; first compound 0.3162 µM): 0.803
relative viability ([16]; first compound 1 µM): 0.725
relative viability ([17]; first compound 0.01 µM): 0.676
relative viability ([17]; first compound 0.03162 µM): 0.615
relative viability ([17]; first compound 0.1 µM): 0.622
relative viability ([17]; first compound 0.3162 µM): 0.701
relative viability ([17]; first compound 1 µM): 0.568
relative viability ([18]; first compound 0.01 µM): 0.791
relative viability ([18]; first compound 0.03162 µM): 0.803
relative viability ([18]; first compound 0.1 µM): 1.12
relative viability ([18]; first compound 0.3162 µM): 0.996
relative viability ([18]; first compound 1 µM): 0.694
relative viability ([19]; first compound 0.01 µM): 0.56
relative viability ([19]; first compound 0.03162 µM): 0.669
relative viability ([19]; first compound 0.1 µM): 0.638
relative viability ([19]; first compound 0.3162 µM): 0.689
relative viability ([19]; first compound 1 µM): 0.623
relative viability ([20]; first compound 0.01 µM): 0.879
relative viability ([20]; first compound 0.03162 µM): 0.677
relative viability ([20]; first compound 0.1 µM): 0.859
relative viability ([20]; first compound 0.3162 µM): 0.815
relative viability ([20]; first compound 1 µM): 0.291
relative viability ([21]; first compound 0.01 µM): 0.373
relative viability ([21]; first compound 0.03162 µM): 0.39
relative viability ([21]; first compound 0.1 µM): 0.449
relative viability ([21]; first compound 0.3162 µM): 0.377
relative viability ([21]; first compound 1 µM): 0.273
relative viability ([22]; first compound 0.01 µM): 0.412
relative viability ([22]; first compound 0.03162 µM): 0.377
relative viability ([22]; first compound 0.1 µM): 0.33
relative viability ([22]; first compound 0.3162 µM): 0.341
relative viability ([22]; first compound 1 µM): 0.219
